Test results as given in patent US20240299353A1, “COMPOSITIONS AND METHODS FOR TREATING […] 5-MEO-DMT” (Alvarius Pharmaceuticals Ltd., priority 2021, published 2024).

Tests used:
GR = assay: Western blot of GR in hippocampus, chronic cocaine ± 5-MeO-DMT; format: in vivo, Male Wistar rats
Source text: Male Wistar rats aged 7 weeks were acclimatized to the facility for 1 week prior to the beginning of the study. […] Animals were euthanized 23- or 119-hours following vehicle or 5-MeO-DMT administration.
Following euthanasia brain regions of interest were isolated. Briefly, the olfactory bulbs were removed before the brain was placed in a rat brain matrix (FIG. 2A). Sterile blades were inserted at positions 2 and 3 (FIG. 2B) to extract a coronal slice containing the Bregma+˜0.2-+˜2.2 coordinates (FIG. 2C). From this tissue slice a blunted 12 G needle was used to punch dissect the NAc and dorsal striatum (DS) (FIG. 2D-2E) identified using the rat brain atlas (Panxinos and Watson 2nd edition). The PFC, hippocampus (Hip) and amygdala (Amyg) were then blunt dissected (FIG. 3A-3D). All regions were frozen in liquid nitrogen and stored at −80° C. until processed.
These treatment groups were used for the molecular assessment of addiction-linked markers.
Determination of protein concentration—a bicinchoninic acid assay (BCA, ThermoFisher) was conducted to determine the total protein concentration in tissue lysates following manufacturer's instructions. […] For tissue lysates a 1:10 dilution was performed with cell lysis buffer to ensure absorbance values lay within the working range established by the standards. […] The plate was covered and incubated for 30 mins at 37° C. before absorbance was read at 562 nm on a plate reader (SpectraMax M3). The absorbance values were used to form a standard curve of known protein concentrations and protein concentration of samples were derived using the equation of the line. […]
SDS-PAGE and Western Blotting—Following equalisation of protein concentrations, 6× sample loading buffer (15% SDS, 15% […], 50% glycerol, 0.01% bromophenol blue, […]) was added to each sample using a dilution factor of 1:5 of the total volumes before boiling at 100° C. for 5 mins. […] The percentage of acrylamide in the resolving or stacking gel was determined by the molecular weight of the protein of interest. […]

rats = assay: Pre-pulse inhibition of startle; format: in vivo; conditions: for treatment effects on PPI: cohort 1 (20 mg/kg 5-MeO-DMT)
Method: In this instance the animals were 9 weeks old at the initiation of drug exposures and we selected just the high (20 mg/kg) dose of 5-MeO-DMT from the molecular study. […] Due to the number of behavioral paradigms to be completed by each animal we divided the study into two cohorts staggered by two weeks with 8 animals coming from each cohort to make up the 16 animals for each treatment group. 23 hours after 5-MeO-DMT administration the animals were introduced to the open field arena where they were allowed to freely explore the area for 5 mins. Following the open field test (OFT) animals were returned to their home cage for 2 hours before beginning either the elevated plus maze (EPM) or pre-pulse inhibition (PPI) testing. 24 hours after completing the OFT animals were returned to the chamber for the first session in novel object (NO1) testing. The animals were returned to their home cage for 2 hours before beginning the EPM or PPI test. 24 hours after NO1 the animals returned to the open field chamber for the second session in novel object (N02) testing. After completing N02 animals were returned to their home cage for 2 hours before they underwent the forced swim test (FST) pre-test. 24 hours later the animals were returned to the FS cylinders for the FST. Upon completion of the FST all animals were euthanized. A timeline of this experimental cohort is described in FIG. 8A.
The experiment was conducted as described for cohort 1 for the first 13 days of injections. There are a number of notable differences in experimental procedures between the two cohorts of animals to be highlighted. […] Finally, the dose of 5-MeO-DMT was reduced to 10 mg/kg. The order and timing of all the behavioral paradigms were kept constant between the cohorts. A timeline of this experimental cohort is described in FIG. 8B. Additionally, 5-MeO-DMT administrations were staggered so animals could be observed for the duration of acute drug effects and to ensure recovery prior to the next animal being injected. The typical symptoms of psychedelic drug administration outlined above were reproduced in all animals administered 5-MeO-DMT.
The PPI protocol employed was based on a procedure previously described by Geyer and colleagues (Geyer, M. A., K. Krebs-Thomson, D. L. Braff & N. R. Swerdlow (2001) Pharmacological studies of prepulse inhibition models of sensorimotor gating deficits in schizophrenia: a decade in review. Psychopharmnacology, 156, 117-154). Each rat was restrained in an appropriately sized cylindrical holder that was placed on a movement-sensitive platform and maintained in a soundproof chamber. The animal was allowed to habituate to a white noise background of 70 dB for 5 mins before receiving 5 20 ms startle trials of 120 dB separated by randomized intervals of 10-20 s. Immediately thereafter, each rat received 5 separate presentations with one of the pre-pulse stimuli of 72, 76, 80, or 84 dB followed 100 ms later by the 120 dB acoustic startle stimulus. Each trial was separated by a time interval of 10-20 s. The 4 pre-pulse stimuli were delivered in a randomised manner and included periods in which there was no pre-pulse or startle stimulus. The session terminated with five further startle trials. Randomisation of the sound signals delivered and quantification of the startle movements were recorded from the movement-sensitive platform. Signals were integrated using the software supplied by the manufacturers of equipment hardware (MED-Associates Inc., St. Albans, VT, USA).

Compound | GR expression (GR; 24 h, cocaine, p=0.0434, no post hoc differences) | GR expression (GR; 120 h, cocaine effect) | treatment effects on PPI (rats) | percentage inhibition of startle with change in intensity of the pre-pulse (rats; cohort 1, cocaine alone) | GR expression (GR; 24 h and 120 h, 5-MeO-DMT) | inhibition of the startle response at 80 dB or 84 dB relative to the 72 dB pre-pulse (rats; cohort 1, 5-Meo-treated animals) | percentage inhibition of startle with change in intensity of the pre-pulse (rats; cohort 1, cocaine+20 mg/kg 5-MeO-DMT combination) | PPI at the 80 dB pre-pulse (rats; cohort 1, combination group relative to control and 5-MeO-DMT alone) | treatment effect on PPI (rats; cohort 2 (10 mg/kg 5-MeO-DMT)) | PPI at 84 dB relative to 72 dB pre-pulse (rats; cohort 2, cocaine+10 mg/kg 5-MeO-DMT)
COC(=O)[C@H]1[C@@H](OC(=O)c2ccccc2)C[C@@H]2CC[C@H]1N2C.Cl [cocaine, cocaine hydrochloride, reference compound] | significantly affected GR expression | not detectable | no treatment effects on PPI | no change in percentage inhibition of startle |  |  |  |  |  | 
COc1ccc2[nH]cc(CCN(C)C)c2c1 [5-MeO-DMT, 5-methoxy-N,N-dimethyltryptamine] |  |  | no treatment effects on PPI |  | no 5-Meo-associated regulation of GR | significant increase in the inhibition of the startle response | no change in percentage inhibition of startle | significant attenuation of PPI | no treatment effect on PPI | significant increase in PPI
